Results taken from patent US20120201981A1, “COMBINATIONS OF BIOLOGICAL CONTROL AGENTS WITH A NEMATICIDAL SEED COATING” (priority 2006, published 2012).

Experiments:
M. incognita race 1 = assay: Tomato miniplot field trial; type: in vivo, Meloidogyne incognita; settings: P. chlamydosporia 4000 chlamydospores/cm^3 substrate
Description: Nine miniplots (3 m diameter, 12 cm deep) were each filled with approximately 350000-cm^3 field soil (sandy loam, pH 7.2) obtained from an adjacent field with no significant infestation of plant-parasitic nematodes. Tomato seedlings (Lycopersicum esculentum cv. Tiny Tim) were raised from abamectin-treated seed (0.3 mg a.i./seed) or from Apron/Maxim-treated seed. They were seeded in seedling trays with commercial transplant substrate (Sunshine mix). The substrate was either non-amended or amended with P. chlamydosporia (4000 chlamydospores/cm^3 substrate). After 3 weeks in a greenhouse, the seedlings were transplanted into the 9 miniplots. Each plot was a randomized block with 4 treatments and three plants per treatment. Each planting area was infested by distributing 10,000 eggs of M. incognita race 1 into three 5 cm deep holes approximately 5 cm from each transplant. The plots were irrigated via low-pressure irrigation and fertilized according to local standard. After approximately 10 weeks the plants set fruit and were harvested three times during the following 3 weeks. Number of fruits and weight were taken. All data were subject to ANOVA and mean separation with Fisher's LSD (P=0.05).

[1] = system: root-knot nematodes, Meloidogyne incognita race 1; assay: Cucumber green house trial, cucumber seed coating trial 1; type: in vivo; settings: for main vine length (cm) @ 8 weeks / number egg masses/root / plant dry weight (g) @ 8 weeks / plant height (mm) @ 3 weeks / root galling @ 8 weeks: cucumber, rkn, mean ± SE; for root galling @ 8 weeks: scale 0-10 (0=no galling)
Description: (§1) Pots (10-cm diameter) were filled with 250 g (dry weight) steam-pasteurized river bottom sand. Ten treatments with 6 replications were prepared (Table 1). The fungal antagonist Pochonia chlamydosporia was grown on autoclaved moist millet seed for three weeks at 22° C. Colonized millet was dried in a laminar flow hood, and stored aseptically at 4° C. until use. For soil inoculation, P. chlamydosporia-colonized millet was thoroughly mixed with the sand. Population density of the fungus was approximately 2000 chlamydospores/cc soil for rate 1 and 4000 chlamydospores/cc soil for rate 2.
(§2) The nematode inoculum was raised during the previous 3 months on tomato plants (Lycopersicum esculentum cv. Tropic) in the greenhouse. Nematode eggs were obtained by standard bleach/sieving extraction. With the exception of the first treatment, each pot was infested with ca. 30000 eggs of M. incognita. This is a typical infestation level for nematicide tests resulting in high disease pressure (expected gall rating for non-treated control at 8 weeks was approximately 7 on a scale of 0-10 (Zeck, Pflanzenschutz-Nachrichten, Bayer AG, 24:141-144, 1971). Cucumber seeds (Cucumis sativus L. cv. Straight Eight, Burpee Seed Co.) were coated with either0.1 mg or 0.3 mg abamectin/seed or received no further treatment. Each pot received slow-release fertilizer (Osmocote Vegetable and Bedding Plant Food, 14-14-14, The Scotts Company) recommended for tomato production. The pots were arranged in a randomized complete block design in a greenhouse at ca. 24°±3° C. and ambient lighting. Irrigation was applied daily as needed. Three and eight weeks after seeding plant height or main vine length was determined. Eight weeks after seeding the trial was terminated and the plant tops were cut off. They were placed in a drying oven overnight and their weight was determined. The roots were placed in eryoglaucin solution overnight and the stained egg masses of the root-knot nematodes were counted. Root galling was rated on a scale of 0-10 (0=no galling). The trial was repeated once.

[2] = system: root-knot nematodes, Meloidogyne incognita race 1; assay: Cucumber green house trial, cucumber seed coating trial 2; type: in vivo; settings: rkn, mean ± SE
Description: as §1, §2

[3] = system: Meloidogyne incognita race 3; assay: Root-knot nematode trial on tomato, abamectin seed coating with soil application of Pasteuria penetrans
Description: Abamectin coated (0.3 mg a.i./seed) and non-treated tomato seed (cv. Kirby) was provided by Syngenta Crop Protection. The treatments were seeded in individual seedling trays. After 3 weeks incubation in a greenhouse at 25°±2° C., the seedlings were transplanted into 1500 cm^3 pots containing the test soil. The soil was collected from a field at the UC South Coast Research and Extension Center at Irvine (San Emigdio sandy loam, 12.5% sand, 12% clay, 75.4% silt, 0.45 OM, pH 7.4). To improve soil aeration and irrigation water drainage, ⅔ of the soil was mixed with ⅓ (v/v) plaster sand. The soil was pasteurized and infested with root-knot nematodes. Meloidogyne incognita race 3 inoculum was reared on tomato cv. UC 82 for ca. three months in greenhouse cultures. Nematode eggs were harvested from the root systems by a modification of a bleach/sieving method (Hussey and Barker, Plant Disease Reporter, 57:1025-1028 (1973)) and used to infested the test soil with 1000 eggs of M. incognita race 3 per 100 cm^3. Pasteuria penetrans was obtained from the University of California Riverside Nematology culture collection. The inoculum was reared on root-knot nematode-infested tomato plants. In the Pasteuria treatments, the soil was amended with approximately 1×10^5 endospores/g soil. The trial was arranged as a complete randomized block with 6 replications and incubated in a greenhouse at 26°±2° C. with ambient light. All pots were fertilized with Osmocote 14-14-14 (label rate for tomato production). Irrigation was applied as needed. Two months after transplanting, plant tops were cut off at the soil level, oven dried and weighted. Roots were rated for galling on a scale of 0-10 (Zeck, Bayer AG, Pflanzenschutz-Nachrichten, 24:141-144 (1971)).

[4] = system: root-knot nematodes, Meloidogyne incognita race 1; assay: Tomato green house trials (data of two trials combined); type: in vivo; settings: for J2/50 ml soil / Plant dry weight(g) / Plant height(cm) / egg count/root / egg masses/root / Root galling / fruit weight (g) / number of fruits/plant / total fruit weight/plant (g): tomato, rkn, mean ± SE; for J2/50 ml soil / Plant dry weight(g) / Plant height(cm) / egg count/root / egg masses/root / Root galling: trial termination; for Root galling: scale from 0-10; for fruit weight (g): average fruit weight
Description: The greenhouse trials were conducted in pulp pots (10-cm diameter) filled with steam-pasteurized sand (250 cm^3). The biological control organism (BCO) P. chlamydosporia was grown as described above. P. chlamydosporium-inoculated millet seed were washed (1:2 weight/volume millet seed and sterile distilled water, 2 min shaking in electric blender) and passed through a 100-mesh sieve to remove the millet from the fungal chlamydospores. These served as the inoculum and were counted with a counting chamber (Fuchs-Rosenthal). The chlamydospores were thoroughly mixed with the sand. Population density of fungus was approximately 2000 chlamydospores/g soil for rate 1 and 4000 chlamydospores/g soil for rate 2 (Table 1). Tomato seeds (Lycopersicum esculentum cv. Tiny Tim) were coated with either 0.1 mg or 0.3 mg abamectin/seed or received no further treatment (Table 1). The tomato seeds were sown into seeding trays with commercial seedling substrate and after 2 weeks the plants were transplanted into 10-cm pulp pots. With the exception of the first treatment, each pot was infested with ca. 30000 eggs of M. incognita. Egg hatch rate was approximately 10% on Baerman funnels at 26° C. for 5 days. Each pot received slow release fertilizer (Osmocote Vegetable and Bedding Plant food, 14-14-14, The Scotts Company). Pots were arranged in a randomized complete block design with 6 replications per treatment and incubated in greenhouse at ca. 24±3C and ambient lighting. Plants were watered daily as needed. Plant height was determined and the shoots were cut off at the end of the trial. Shoots be placed in a drying oven at 69° C. for 72 h and the weight of each plant was determined. The extent of root galling was assessed on a scale from 0-10 (Zeck, 1971, supra).
Nematode populations were determined by counting egg masses (=number of fecundate females), eggs and second-stage juvenile (J2). The roots were placed in eryoglaucin solution overnight to stain egg masses of the root-knot nematodes which enabled their enumeration (Omwega et al., 1988). The eggs were released from egg masses through a modified bleach/sieving extraction technique (Hussey and Barker, 1973). Each week, ripe (red) tomato fruits were picked off, and the number and weight were recorded. Picking was continued until fruit production seized. The trial was repeated once. All data were subject to analysis of variation with SuperANOVA (Abacus Concepts, 1989, Berkeley, Calif.). If appropriate, Fisher's Protected Least Significant Difference (LSD) was used to separate means at P=0.05.

[5] = tomato miniplots, 10,000 eggs per planting area, mean ± SE, abamectin 0.3 mg/seed
[6] = abamectin seed coating 0.1 mg/seed
[7] = abamectin seed coating 0.3 mg/seed
[8] = tomato cv. Kirby, two months after transplanting, mean ± SE, abamectin seed coated 0.3 mg a.i./seed, P. penetrans soil incorporated 1 × 10E5/g soil

## abamectin
M. incognita race 1; tomato miniplot field trial, abamectin 0.3 mg a.i./seed
  yield (in words): increased the yield significantly
M. incognita race 1; [5]
  M. incognita eggs/plant: 171,400 ± 37,100 a
  number fruits/plant: 69.0 ± 3.2 b
  root galling at harvest: 4.5 ± 0.2 c
  total fruit weight/plant: 290.6 ± 12.6 b
[1]; cucumber trial 1, 0.3 mg/seed rate of abamectin
  plant growth compared to the non-treated control plants (in words): significant increases in early plant growth as well as in plant dry weight and main vine length
[1]; cucumber trial 1, low rate of abamectin
  plant growth and root galling (in words): neither plant growth was improved nor root galling was significantly reduced
[1]; [6]
  main vine length (cm) @ 8 weeks: 100.7 ± 8.8 ab cm
  number egg masses/root: 108.2 ± 14.0 ab
  plant dry weight (g) @ 8 weeks: 4.2 ± 0.4 a g
  plant height (mm) @ 3 weeks: 70.8 ± 2.3 a mm
  root galling @ 8 weeks: 6.3 ± 0.6 de
[1]; [7]
  main vine length (cm) @ 8 weeks: 127.8 ± 11.9 cde cm
  number egg masses/root: 85.8 ± 12.8 ab
  plant dry weight (g) @ 8 weeks: 5.7 ± 0.4 bc g
  plant height (mm) @ 3 weeks: 90.8 ± 7.1 bc mm
  root galling @ 8 weeks: 5.8 ± 0.4 cde
[2]; [6]
  main vine length (cm) @ 8 weeks: 146.2 ± 9.8 c cm
  number egg masses/root system @ 8 weeks: 80.8 ± 27.8 b
  plant dry weight (g) @ 8 weeks: 6.4 ± 0.5 c g
  plant height (mm) @ 3 weeks: 96.2 ± 6.4 bcd mm
  root galling @ 8 weeks (scale 0-10): 5.3 ± 0.2 abc
[2]; [7]
  main vine length (cm) @ 8 weeks: 131.3 ± 6.2 bc cm
  number egg masses/root system @ 8 weeks: 36.7 ± 4.0 a
  plant dry weight (g) @ 8 weeks: 6.0 ± 0.3 bc g
  plant height (mm) @ 3 weeks: 105.8 ± 5.3 cde mm
  root galling @ 8 weeks (scale 0-10): 5.0 ± 0.4 ab
[3]; tomato cv. Kirby, trial termination, mean ± SE, abamectin seed coated 0.3 mg a.i./seed, P. penetrans soil incorporated 1 × 10E5/g soil
  J2/50 cc soil: 95 ± 15 b
[3]; [8]
  plant top dry weight (g): 31.3 ± 1.8 ab g
  root gall rating (0-10): 3.3 ± 0.3 ab
[3]; tomato, abamectin 0.3 mg a.i./seed, P. penetrans 1×10^5 endospores/g soil
  root galling (in words): reduced galling by approximately two rating classes
[4]; tomato greenhouse, abamectin seed coating alone
  root galling reduction (in words): approximately two rating classes below the check
[4]; [6]
  J2/50 ml soil: 20.3 ± 4.3ab
  Plant dry weight(g): 5.24 ± 0.35b g
  Plant height(cm): 27.33 ± 0.72cd cm
  egg count/root: 346133 ± 39003 days
  egg masses/root: 454.2 ± 62.7c
  Root galling: 6.67 ± 0.21ef
  fruit weight (g): 5.19 ± 0.18bc g
  number of fruits/plant: 31.0 ± 4.6bcd
  total fruit weight/plant (g): 160.3 ± 22.8bc g
[4]; [7]
  J2/50 ml soil: 7.2 ± 5.4ab
  Plant dry weight(g): 6.31 ± 0.21c g
  Plant height(cm): 26.17 ± 2.14bc cm
  egg count/root: 205867 ± 66056bc
  egg masses/root: 381.7 ± 120.3c
  Root galling: 5.00 ± 0.52c
  fruit weight (g): 6.00 ± 0.14c g
  number of fruits/plant: 40.5 ± 1.5cde
  total fruit weight/plant (g): 243.3 ± 11.8 g·days
